According to ChEMBL document CHEMBL1154955, “Discovery of potent and selective bicyclic A(2B) adenosine receptor antagonists via bioisosteric amide replacement” (Bioorg Med Chem Lett, 2010):
≈ marks a conversion by molar mass, not a printed value.

Assays:
[1] = Metabolic stability in rat liver microsomes assessed as turnover at 5 uM after 30 mins in absence of NADPH; type: ADME, Microsome; conditions: read-out: Stability
Adenosine receptor A1 = biological target: T1, Adenosine receptor A1 (Homo sapiens, UniProt P30542); assay: Displacement of [3H]DPCPX from human adenosine A1 receptor expressed in CHO cells after 90 mins by filtration binding assay; type: cell-based
T1 sequence (P30542 whole entry): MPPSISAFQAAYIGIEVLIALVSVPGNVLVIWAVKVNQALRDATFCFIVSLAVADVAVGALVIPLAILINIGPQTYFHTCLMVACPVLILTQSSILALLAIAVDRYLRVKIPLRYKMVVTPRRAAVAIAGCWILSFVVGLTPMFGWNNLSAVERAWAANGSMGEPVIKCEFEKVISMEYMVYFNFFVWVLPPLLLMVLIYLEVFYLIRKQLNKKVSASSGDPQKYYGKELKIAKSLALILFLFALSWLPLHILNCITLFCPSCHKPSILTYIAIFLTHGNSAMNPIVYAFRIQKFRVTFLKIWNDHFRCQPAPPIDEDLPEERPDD

[2] = Thermodynamic solubility at pH 7.4; type: physicochemical; conditions: buffer
[3] = AUC (0 to infinity) in rat at 1 mg/kg, iv; type: ADME, organism-based; parameters: time infinity, dose 1 mg/kg, route intravenous; conditions: plasma
[4] = Clearance in rat at 1 mg/kg, iv; type: ADME, organism-based; parameters: dose 1 mg/kg, route intravenous; conditions: in vivo
[5] = Apparent permeability across human Caco-2 cells at 12.5 uM; type: ADME, cell-based; conditions: read-out: permeability
[6] = Terminal half life in rat at 1 mg/kg, iv; type: ADME, organism-based; parameters: dose 1 mg/kg, route intravenous; conditions: in vivo
[7] = Cmax in rat at 1 mg/kg, iv; type: ADME, organism-based; parameters: dose 1 mg/kg, route intravenous; conditions: in vivo
Adenosine receptor A3 = biological target: T2, Adenosine receptor A3 (Homo sapiens, UniProt P0DMS8); assay: Displacement of [3H]NECA from human adenosine A3 receptor expressed in human HeLa cells after 3 hrs by filtration binding assay; type: cell-based
T2 sequence (P0DMS8 whole entry): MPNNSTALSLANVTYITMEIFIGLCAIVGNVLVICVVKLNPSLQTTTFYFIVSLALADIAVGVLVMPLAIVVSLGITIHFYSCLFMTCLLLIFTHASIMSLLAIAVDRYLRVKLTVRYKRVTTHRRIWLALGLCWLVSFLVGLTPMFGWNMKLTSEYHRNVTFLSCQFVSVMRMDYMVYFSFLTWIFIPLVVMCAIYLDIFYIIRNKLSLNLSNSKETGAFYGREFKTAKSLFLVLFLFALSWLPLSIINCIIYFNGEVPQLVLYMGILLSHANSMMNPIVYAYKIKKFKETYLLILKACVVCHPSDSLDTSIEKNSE

Adenosine receptor A2b = biological target: T3, Adenosine receptor A2b (Homo sapiens, UniProt P29275); assay: Displacement of [3H]DPCPX from human adenosine A2B receptor expressed in HEK293 cells after 60 mins by filtration binding assay; type: cell-based
T3 sequence (P29275 whole entry): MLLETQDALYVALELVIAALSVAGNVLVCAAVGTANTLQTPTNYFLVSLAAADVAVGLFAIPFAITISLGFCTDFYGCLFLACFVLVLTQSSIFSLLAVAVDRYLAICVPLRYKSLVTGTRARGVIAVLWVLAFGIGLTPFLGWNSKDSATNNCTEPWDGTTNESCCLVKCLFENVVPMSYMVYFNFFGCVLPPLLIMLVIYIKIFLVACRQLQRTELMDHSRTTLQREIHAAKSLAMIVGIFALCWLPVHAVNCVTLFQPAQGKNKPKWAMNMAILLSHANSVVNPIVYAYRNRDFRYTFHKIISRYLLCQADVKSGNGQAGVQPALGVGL

Adenosine receptor A2a = Adenosine receptor A2a (Homo sapiens, UniProt P29274); assay: Displacement of [3H]ZM241385 from human adenosine A2A receptor expressed in human HeLa cells after 1 hr by scintillation proximity assay; type: cell-based
[8] = Volume of distribution at steady state in rat at 1 mg/kg, iv; type: ADME, organism-based; parameters: dose 1 mg/kg, route intravenous; conditions: in vivo, read-out: Vdss
[9] = biological target: T4, Adenosine receptor A3 (Homo sapiens) (UniProt P0DMS8); assay: Inhibition of [3H]NECA binding to human adenosine A3 receptor expressed in human HeLa cells at 1 uM after 3 hrs by filtration binding assay; type: cell-based
T4 sequence (whole entry): T2 sequence (P0DMS8 whole entry)

[10] = Oral bioavailability in rat at 10 mg/kg; type: ADME, organism-based; conditions: in vivo

Sequence of Adenosine receptor A2a (P29274 whole entry): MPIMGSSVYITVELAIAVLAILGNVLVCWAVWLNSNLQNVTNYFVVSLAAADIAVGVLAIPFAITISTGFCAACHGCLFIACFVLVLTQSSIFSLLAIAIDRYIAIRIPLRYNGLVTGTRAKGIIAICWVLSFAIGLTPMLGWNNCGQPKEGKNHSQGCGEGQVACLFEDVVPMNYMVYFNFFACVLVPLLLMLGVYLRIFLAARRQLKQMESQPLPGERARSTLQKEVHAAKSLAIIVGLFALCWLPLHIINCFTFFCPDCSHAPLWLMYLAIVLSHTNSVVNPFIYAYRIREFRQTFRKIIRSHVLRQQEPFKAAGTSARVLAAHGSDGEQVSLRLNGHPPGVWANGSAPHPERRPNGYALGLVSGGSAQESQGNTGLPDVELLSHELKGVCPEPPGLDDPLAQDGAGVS

Structure (SMILES)	metabolised at 0.5 h, 5 µM [1] [%]	Ki (Adenosine receptor A1) [nM]	solubility thermodynamic [2] [µg/mL]	AUC(0-inf) [3] [ng·h/mL]	clearance [4] [mL/min/kg]	Papp at 12.5 µM [5] [×10⁻⁶ cm/s]	half-life [6] [min]	Cmax [7] [ng/mL]	Ki (Adenosine receptor A3) [nM]	Ki (Adenosine receptor A2b) [nM]	Ki (Adenosine receptor A2a) [nM]	Vd [8] [L/kg]	inhibition [9] [%]	bioavailability [10] [%]
O=c1[nH]c(=O)c2cc(-c3ccncn3)c(-c3ccco3)nc2[nH]1	0	1730	61 (≈ 199 µM)	880	20	20	24	1680	6270	1	181	0.75		
O=c1[nH]c2cc(-c3ccncn3)c(-c3ccco3)nc2[nH]1	15	317	48 (≈ 172 µM)	350	50	40	60	762		6	769	1	18	20
O=C(Nc1ccc(-c2ccncn2)c(-c2ccco2)n1)C1CC1						45								
O=c1[nH][nH]c2nc(-c3ccco3)c(-c3ccncn3)cc12	7	82		504	33.3	3.5	24	1330		3	177	0.6	2	
c1coc(-c2nc3[nH]ncc3cc2-c2ccncn2)c1	17	478	296 (≈ 1120 µM)	736	23.3	39	36	1050		23	1660	0.8	2	

The remaining molecules from weak to strong by Ki (Adenosine receptor A1), led by results:

metabolised at 0.5 h, 5 µM [1] [%]	Ki (Adenosine receptor A1) [nM]	solubility thermodynamic [2] [µg/mL]	AUC(0-inf) [3] [ng·h/mL]	clearance [4] [mL/min/kg]	Papp at 12.5 µM [5] [×10⁻⁶ cm/s]	half-life [6] [min]	Cmax [7] [ng/mL]	Ki (Adenosine receptor A3) [nM]	Ki (Adenosine receptor A2b) [nM]	Ki (Adenosine receptor A2a) [nM]	Vd [8] [L/kg]	inhibition [9] [%]	bioavailability [10] [%]	Structure (SMILES)
8	2440				32				11	2130		17		Cn1c(=O)[nH]c2nc(-c3ccco3)c(-c3ccncn3)cc21
10	717				23				21	3600		0		c1coc(-c2nc3[nH]cnc3cc2-c2ccncn2)c1
6	357	204 (≈ 733 µM)	164	102	24	24	397		8	858	3.7	15		Nc1n[nH]c2nc(-c3ccco3)c(-c3ccncn3)cc12
88	252				40				13	619		7		c1coc(-c2nc3[nH]ccc3cc2-c2ccncn2)c1
